Laboratory results: US12677825B2, “Composition for protecting islet transplantation” (LG CHEM, LTD., priority 2020, dated 2026)

How the values were obtained:
[1] = test system: wild type C57BL/6 mouse islets; assay: Effects of Compound 1 during isolation on wild type mouse islets (viability, function, cytokine expression); format: cell-based; settings: Compound 1 during islet isolation; FIG. 2
Protocol: Mouse islets were isolated from 10- to 12-week-old hIAPP^+/− and C57BL/6 mice as described previously. Briefly, 0.8 mg/mL of collagenase P (Roche, Indianapolis, IN, USA) in Hank's buffered saline solution (HBSS, Sigma-Aldrich, St. Louis, MO, USA) with or without 20 μM Compound 1 were infused into the common bile duct for mouse pancreas digestion. Islets were purified from the digested pancreas using a Ficoll (Biochrom, Berlin, Germany) gradient and washed several times with 1 xHBSS. Isolated islets were cultured while free-floating in 10 mL of RPMI 1640 (Gibco, Grand Island, NY, USA). The medium was supplemented with 10% heat-inactivated FBS (fetal bovine serum) at 37° C. and 5% CO2 incubation prior to the ex vivo and in vivo studies.

[2] = test system: hIAPP+/− FVB/N mice islets; assay: AO/PI staining viability during serum-deprived culture; format: cell-based, mouse; settings: BSA culture 72 hours, with Compound 1 vs BSA alone; FIGS. 6A, 6B
Protocol: (§1) Purified hIAPP^+/− FVB/N and C57BL/6J mouse were suspended in RPMI 1640 (Gibco, Grand Island, NY, USA) containing 100 IU/mL penicillin and 100 μg/mL streptomycin, and cultured at 37° C. in a fully humidified 5% CO2 atmosphere. Purified NHP islets were suspended in CMRL 1066 medium (Coming Life Sciences, Tewksbury, MA; catalog number 99-663-CV) containing 100 IU/mL penicillin and 100 μg/mL streptomycin, and cultured at 37° C. in a fully humidified 5% CO2 atmosphere. […]
Islet viability after isolation and culture was assessed using double fluorescence in acridine orange (0.67 […]) and propidium iodide (75 […]) (AO/PI) staining to visualize the living and dead islet cells simultaneously. Fluorescent imaging was performed with a fluorescence microscope (Nikon ECLIPSE 80i, Tokyo, Japan) and live and dead areas were quantified using NIS-Element AR 3.0 (Nikon). The islet viability (%) was calculated as living islet cells/total islet cells×100.

[3] = test system: islets from hIAPP+/− mouse; assay: GSIS assay after serum-deprived culture; format: cell-based; settings: Compound 1 added to medium during serum-deprived culture; FIG. 6E
Protocol: as §1
After hand-picking and washing with PBS, islets were seeded on 12-mm diameter insert wells (Merck Millipore, Billerica, MA, USA) with 10 islets per well, and preincubated with 60 mg/dL glucose in Kreb's-Ringer buffer (KRB: 129 mM NaCl, 4.8 mM KCl, 2.5 mM CaCl2, 1.2 mM KH2PO4, 5 mM NaHCO3, 10 mM HEPES, and 0.2% BSA) for 90 mM at 37° C. […] Insulin release into the supernatant by the mouse islets was measured by ELISA (ALPCO, Salem, NH, USA) and a multiplex kit (Merck Millipore), respectively.

[4] = test system: STZ-induced diabetic hIAPP+/− FVB/N mice; assay: Marginal mass islet transplantation after serum-deprived culture with or without Compound 1; format: in vivo, mouse
Protocol: A marginal mass renal subcapsular islet transplantation model was used to assess the in vivo islet function of hIAPP^+/− mice. To induce diabetes, 180 mg/kg of streptozotocin (STZ, Sigma-Aldrich) was administered to 8- to 10-week-old FVB/N mice. Mice were considered to have diabetes when two consecutive blood glucose level readings were higher than 300 mg/dL. Equal amounts (400 IEQ of islets per recipient) of islets isolated from hIAPP^+/− mice were allocated to the following two groups: culture medium supplemented with 0.625% BSA (BSA group) and 0.625% BSA plus Compound 1 (BSA+Compound 1 group) to evaluate the combined effect of Compound 1 on islet mass and function during ex vivo culture. After culture for 72 hours, islets were transplanted into the renal subscapular space of diabetic hIAPP^+/− mice. The IE number was calculated using the Ricordi algorithm by classifying islets according to their diameter. After islet transplantation, non-fasting blood glucose levels were measured three times a week for the first 2 weeks and twice a week for the last 2 weeks.
At 4 weeks after transplantation, the transplantation site on the kidney of mouse were removed and embedded in paraffin. Immunohistochemical staining is briefly explained in the following. After deparaffinization, 4-μm tissue sections were stained with the polyclonal guinea pig anti-insulin antibody (1:1000, A0546, DAKO, Denmark), glucacon (1:500, ab92517, abcam, United Kingdom) and amyloid (1:2500, #44-344, Invitrogen). Stained slides were observed using an Olympus BX40 light microscope (Olympus, Japan) with […] numeric aperture and ×40/0.75 numeric aperture objectives. Photographic images were collected with a digital camera (Olympus DP50) and analyzed using the Image-Pro Plus 5.1 software.
For quantification of the DAB-labeled β-cells, all slides were imaged at 10× on a Vectra 3.0 automated quantitative pathology imaging system and analyzed using inForm software (all from Perkin-Elmer, Waltham, MA, USA). The transplanted renal tissue sections were scanned for image acquisition and then to set the transplanted tissue segmentation, a number of representative regions of transplanted islet cells and regions to be excluded from the analysis such as renal tissues were examined by learn-by-example interface. For the β-cell segmentation, a spectral library was used to identify the hematoxylin-stained nuclei and the DAB-stained cytoplasm (β-cells) within the transplanted tissue. With these training sets, the algorithm for identifying only the DAB-stained cells in the transplanted tissue was verified. All the captured 10× images were analyzed, and the DAB-stained transplanted β-cells were counted.

O=S1(=O)CCN(Cc2cc(NC3CCOCC3)c3[nH]c(-c4ccccc4)cc3c2)CC1 [Compound 1]
reproduction of isolation results (viability, function, pro-inflammatory cytokine expression) in wild type islets [1]: reproduced | cell viability assessed by AO/PI staining [2]: significantly improved | stimulation index [3]: significantly increased | insulin positive area in the grafted tissue ([4]; islets cultured 72 hours with Compound 1, vs control group, FIG. 7F): greater | posttransplant glucose levels ([4]; islets cultured 72 hours with Compound 1, vs control, FIG. 7B): significantly better | diabetes reversal rate ([4]; islets cultured 72 hours with Compound 1, vs control, FIG. 7C): significantly better | glucose levels during IPGTT ([4]; islets cultured 72 hours with Compound 1, vs control, FIG. 7D): significantly better | AUC of glucose during IPGTT ([4]; islets cultured 72 hours with Compound 1, vs control, FIG. 7E): significantly better
